Experimental data as given in patent US11332564B2, “Method to produce stimuli sensitive UV absorbing polymers” (GALAXY SURFACTANTS LTD, priority 2020, dated 2022).

Key:
[1] = UV absorption (E1%cm, extinction, λmax) by absorption spectrophotometer; type: physicochemical; settings: for E1%cm: at λmax 310 nm
Method: (§1) p-Methoxy cinnamido propyl dimethyl amine was obtained from Galaxy Surfactants Ltd., Mumbai. Vinyl benzyl chloride was purchased from Seimi Chemical Co., Ltd. Japan. N, N-Diethyl acrylamide was obtained from Sigma Aldrich, India. N-isoproyl acrylamide was synthesized as per the literature procedure (Polym. J., Vol. 25, No. 6, pp. 561-567). Surface tension was measured on Kruss tensiometer by Wilhelmy plate method. Intrinsic viscosity was measured by Ubbelohde viscometer. NMR spectroscopy was done on 400 MHz Bruker machine. Infrared spectra were recorded on FTIR from Perkin Elmer (Spectrum 100). UV Varian's, Cary 50 absorption spectrophotometer was used for UV absorption data.

[2] = Photo-degradation study of cream formulations under UV lamp, 200 h; type: physicochemical; settings: Cream of Example VIII (10% copolymer of Example II)
[3] = as above; type: physicochemical; settings: Cream Example VII (without copolymer of Example II)
Method: Example VII is a cream formulation with OMC and Avobenzone is exposed for 200 h using UV light from a UV lamp.

[4] = commercial UV absorbers; cited from earlier work
[5] = Surface tension, Kruss tensiometer, Wilhelmy plate method; type: physicochemical
Method: as §1

SMILES | molar extinction coefficient ([1]; at 290 nm) | Component content, UV exposure 200 h [2] [%] | Component content, Unexposed [2] [%] | Component content, Zero h [2] [%] | Component content, UV exposure 200 h [3] [%] | Component content, Unexposed [3] [%] | Component content, Zero h [3] [%] | λmax [4] [nm] | E1%cm [1] | E1%cm ([1]; listed as Step (a) of Example I) | Surface tension of 1% aqueous solution [5] [mN/m]
COc1ccc(C=CC(=O)NCCCN(C)C)cc1 [Formula IIa, p-methoxy cinnamidopropyl dimethyl amine] | 24,000 | – | – | – | – | – | – | – | – | – | –
CCCCC(CC)COC(=O)C=Cc1ccc(OC)cc1 (stereo not drawn) [OMC, Octyl methoxy cinnamate] | – | 4.5 | 6.0 | 6.0 | 2 | 6.0 | 6 | 302 | – | – | –
COc1ccc(C(=O)CC(=O)c2ccc(C(C)(C)C)cc2)cc1 [Avobenzone] | – | 1.5 | 2.0 | 2.0 | 0.1 | 2.0 | 2.0 | 360 | – | – | –
C=Cc1ccc(C[N+](C)(C)CCCNC(=O)/C=C/c2ccc(OC)cc2)cc1 [Formula IVa, p-methoxy cinnamido propyl p-vinyl benzyl dimethyl ammonium chloride] | – | – | – | – | – | – | – | – | 568 | 463 | 42.6
